Reference: patent publication US9066960B2, “Use of the effective fraction of alkaloids from mulberry twig in preparing hypoglycemic agents” (INSTITUTE OF MATARIA MEDICA, CHINESE ACADEMY OF MEDICAL …, priority 2006, dated 2015)

System: α-glucosidase
Experiment: α-glucosidase inhibitor activity
Type: biochemical

SMILES: OCC1NCC(O)C(O)C1O (stereo not shown) [1-deoxynojirimycin]
- Activity among the alkaloids of the effective fraction: the activity is also the highest
